The source of these data is ChEMBL document CHEMBL1201862, “PubChem BioAssay data set” (2004).

Some test systems named below: NCI-H522; OVCAR-5; HOP-62; SK-MEL-2; BT-549; EKVX; Malme-3M; MDA-N; KM12; NCI/ADR-RES; Hs-578T; MCF7; U-251; 786-0; HCT-15; A549; MOLT-4; RPMI-8226; MDA-MB-231; NCI-H23.
What all share (experiment): inhibition of tumour cell growth, NCI panel, 48 h

The structures appear in SMILES notation.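 Assay format: 96-well plates, 48-hour exposure. GI50 is the concentration that inhibits growth by half.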 Calls of active or inactive are those of the source. No stated cut-off is given here; in the data, active = GI50 up to about 1.1 µM and inactive = higher.

Take `O=C1c2ccccc2C(=O)c2c(Nc3cc4c5c(ccc6c7ccc8c9c(cc(Nc%10cccc%11c%10C(=O)c%10ccccc%10C%11=O)c(c3c56)c97)-c3ccccc3C8=O)C(=O)c3ccccc3-4)cccc21`: the GI50 in the experiment with NCI-H522 was 71 µM (inactive); with OVCAR-5 it was > 100 µM (inactive); with HOP-62, 17 µM (inactive); with SK-MEL-2, 53.6 µM (inactive); in the experiment with BT-549 it was 46.3 µM (inactive); in the experiment with EKVX, 40.6 µM (inactive). For the same molecule, the GI50 is > 100 µM (inactive) with Malme-3M; > 100 µM (inactive) in the experiment on MDA-N; > 100 µM (inactive) with KM12; 49.1 µM (inactive) in the experiment on NCI/ADR-RES; 18.1 µM (inactive) in the experiment with Hs-578T; 83.2 µM (inactive) with MCF7. Moreover, the GI50 in the experiment with U-251 is 21.1 µM (inactive); with 786-0 it was 29.2 µM (inactive); in the experiment on HCT-15, above 100 µM; in the experiment on A549 it was 61.7 µM (inactive); with MOLT-4, 37.8 µM (inactive); in the experiment with RPMI-8226, > 100 µM (inactive). Further, the GI50 is 31.6 µM (inactive) in the experiment with MDA-MB-231 and > 100 µM (inactive) in the experiment with NCI-H23.

In the case of `Oc1ccc2ccccc2c1Cc1c(O)ccc2ccccc12`, the GI50 in the experiment with NCI-H522 is 10.7 µM (inactive); with OVCAR-5 it was 15.6 µM (inactive); in the experiment on HOP-62 it was 16.4 µM (inactive); in the experiment on SK-MEL-2 it was 18.6 µM (inactive); with BT-549, 16.9 µM (inactive); in the experiment with EKVX it was 16.2 µM (inactive). The GI50 in the experiment on Malme-3M was 13.2 µM (inactive); in the experiment with MDA-N, 11.6 µM (inactive); with KM12, 18.2 µM (inactive); in the experiment with NCI/ADR-RES, 15.2 µM (inactive); in the experiment with Hs-578T, 14.2 µM (inactive); with MCF7 it was 21.8 µM (inactive). The GI50 was 15.4 µM (inactive) in the experiment with U-251; 21.1 µM (inactive) in the experiment on 786-0; 14.8 µM with HCT-15; 18.1 µM (inactive) in the experiment with A549; 15 µM (inactive) in the experiment on MOLT-4; 16.4 µM (inactive) in the experiment on RPMI-8226. For the same molecule, the results for the GI50 in the experiment on MDA-MB-231 and in the experiment with NCI-H23 were 18.2 µM (inactive) and 16.1 µM (inactive), respectively.

For `CN(CCCCCl)P(=O)(OCc1ccc([N+](=O)[O-])o1)OC[C@H]1O[C@@H](n2cc(F)c(=O)[nH]c2=O)C[C@@H]1O` (stereo partly drawn), the GI50 in the experiment on NCI-H522 is 3.77 µM (inactive); in the experiment with OVCAR-5 it was > 44.5 µM (inactive); with HOP-62 it was 0.145 µM (active); in the experiment with SK-MEL-2, 17.1 µM (inactive); in the experiment with BT-549, 2.84 µM (inactive); in the experiment with EKVX, 35.4 µM (inactive). The GI50 was 3.25 µM (inactive) with Malme-3M; 7.03 µM (inactive) in the experiment with MDA-N; 12.4 µM (inactive) in the experiment with KM12; 0.0658 µM (active) in the experiment with NCI/ADR-RES; 0.514 µM (active) in the experiment with Hs-578T; < 0.0227 µM (active) in the experiment with MCF7. Besides, the GI50 with U-251 is 1.63 µM (inactive); in the experiment on 786-0, 0.883 µM (active); in the experiment on HCT-15, 21.6 µM; in the experiment on A549, 0.0301 µM (active); in the experiment on MOLT-4 it was 0.583 µM (active); with RPMI-8226, 1.27 µM (inactive). For the same molecule, the values for the GI50 in the experiment with MDA-MB-231 and with NCI-H23 were 12.9 µM (inactive) and 0.989 µM (active), respectively.

In the case of `Cc1cc(N(CCC#N)CCC#N)ccc1/C=C1\SC(=S)NC1=O`, the GI50 was 19.4 µM (inactive) with NCI-H522; 34.9 µM (inactive) in the experiment on OVCAR-5; 22.7 µM (inactive) in the experiment with HOP-62; > 100 µM (inactive) in the experiment on SK-MEL-2; 37.2 µM (inactive) in the experiment on BT-549; 51.3 µM (inactive) with EKVX. The GI50 in the experiment with Malme-3M is 52.1 µM (inactive); in the experiment on MDA-N it was > 100 µM (inactive); with KM12 it was 62.2 µM (inactive); in the experiment with NCI/ADR-RES, > 100 µM (inactive); with Hs-578T it was 14.2 µM (inactive); with MCF7 it was 54.2 µM (inactive). Moreover, the GI50 in the experiment on U-251 is 42.5 µM (inactive); with 786-0, 74.6 µM (inactive); with HCT-15, above 100 µM; in the experiment on A549, 62.4 µM (inactive); with MOLT-4, 91 µM (inactive); in the experiment with RPMI-8226, 17.2 µM (inactive). The GI50 in the experiment with MDA-MB-231 and in the experiment with NCI-H23 was > 100 µM (inactive) throughout.

For `Cc1c(N)nc(C2CC(=O)N2CC(N)C(N)=O)nc1C(=O)NC(C(=O)NC(C)C(O)C(C)C(=O)NC(C(=O)NCCc1nc(-c2nc(C(=O)NCCNCC(C)O)cs2)cs1)C(C)O)C(OC1OC(CO)C(O)C(O)C1OC1OC(CO)C(O)C(OC(N)=O)C1O)c1c[nH]cn1` (stereo not drawn), the GI50 in the experiment on NCI-H522 is 0.462 µM (active); in the experiment on OVCAR-5, 2.67 µM (inactive); with HOP-62, 0.0556 µM (active); with SK-MEL-2, 38.1 µM (inactive); in the experiment on BT-549, > 50 µM (inactive); in the experiment with EKVX it was > 41.1 µM (inactive). Moreover, the GI50 in the experiment with Malme-3M is 0.336 µM (active); with MDA-N, > 50 µM (inactive); in the experiment on KM12, 19.9 µM (inactive); in the experiment with NCI/ADR-RES it was 31 µM (inactive); in the experiment with Hs-578T, 2.3 µM (inactive); in the experiment on MCF7, 13.8 µM (inactive). Also, the GI50 in the experiment with U-251 was 1.83 µM (inactive); with 786-0, 33.2 µM (inactive); with HCT-15, 2.73 µM; in the experiment on A549, 3.28 µM (inactive); in the experiment on MOLT-4 it was 0.701 µM (active); in the experiment on RPMI-8226, 9.02 µM (inactive). Besides, the GI50 with MDA-MB-231 is > 50 µM (inactive); in the experiment on NCI-H23 it was 0.437 µM (active).

Regarding `CN(CCNC(=O)c1c[nH]c2c1Cc1ccccc1-2)CCNC(=O)c1c[nH]c2c1Cc1ccccc1-2`, the GI50 was 19.6 µM (inactive) in the experiment with NCI-H522; > 100 µM (inactive) in the experiment with OVCAR-5; 26.4 µM (inactive) in the experiment with HOP-62; 20.6 µM (inactive) in the experiment with SK-MEL-2; 36.6 µM (inactive) in the experiment on BT-549; 37.1 µM (inactive) in the experiment with EKVX. The GI50 in the experiment on Malme-3M is 82.8 µM (inactive); in the experiment with MDA-N, 15.2 µM (inactive); with KM12, 33.3 µM (inactive); in the experiment with NCI/ADR-RES, 29.4 µM (inactive); with Hs-578T, 35.3 µM (inactive); in the experiment on MCF7 it was 22.9 µM (inactive). Also, the GI50 with U-251 was 18.5 µM (inactive); in the experiment with 786-0 it was 20.6 µM (inactive); in the experiment with HCT-15 it was 30.9 µM; in the experiment on A549 it was 43.2 µM (inactive); in the experiment on MOLT-4 it was 24.7 µM (inactive); in the experiment with RPMI-8226 it was 26.5 µM (inactive). Besides, the results for the GI50 in the experiment on MDA-MB-231 and in the experiment on NCI-H23 were 28.6 µM (inactive) and 41.5 µM (inactive), respectively.

On to `Cn1c(SCc2c[nH]c3ccccc23)nnc1-c1ccc(Cl)cc1Cl`, for which the GI50 in the experiment on NCI-H522 is 12.7 µM (inactive); in the experiment on OVCAR-5, 22.8 µM (inactive); in the experiment with HOP-62, 6.1 µM (inactive); in the experiment on SK-MEL-2 it was 12.3 µM (inactive); in the experiment with BT-549, 18.3 µM (inactive); in the experiment with EKVX, 15.3 µM (inactive). Moreover, the GI50 in the experiment with Malme-3M was 18.9 µM (inactive); in the experiment with MDA-N, 4.44 µM (inactive); with KM12 it was 9.82 µM (inactive); with NCI/ADR-RES, 6.07 µM (inactive); in the experiment on Hs-578T, 19.7 µM (inactive); in the experiment with MCF7, 22.7 µM (inactive). Moreover, the GI50 with U-251 is 15.1 µM (inactive); in the experiment on 786-0, 24.4 µM (inactive); with HCT-15, 12.1 µM; in the experiment with A549 it was 17.5 µM (inactive); with MOLT-4, 7.36 µM (inactive); with RPMI-8226 it was 13.1 µM (inactive). The GI50 in the experiment on MDA-MB-231 was 10.5 µM (inactive); in the experiment with NCI-H23, 23.8 µM (inactive).

For `C1CN(c2nc3c(nnc4nc(N5CCOCC5)sc43)s2)CCO1`, the GI50 was 45.3 µM (inactive) with NCI-H522; > 100 µM (inactive) in the experiment on OVCAR-5; > 100 µM (inactive) in the experiment with HOP-62; > 100 µM (inactive) in the experiment with SK-MEL-2; > 100 µM (inactive) in the experiment on BT-549; > 100 µM (inactive) with EKVX. In addition, the GI50 is 37.2 µM (inactive) with Malme-3M; > 100 µM (inactive) with MDA-N; > 100 µM (inactive) with KM12; > 100 µM (inactive) in the experiment on NCI/ADR-RES; 53.6 µM (inactive) in the experiment on Hs-578T; 73.3 µM (inactive) with MCF7. In addition, the GI50 is 60.8 µM (inactive) with U-251; > 100 µM (inactive) in the experiment with 786-0; above 100 µM in the experiment on HCT-15; > 100 µM (inactive) in the experiment on A549; 58.7 µM (inactive) with MOLT-4; > 100 µM (inactive) in the experiment with RPMI-8226. For the same molecule, the GI50 in the experiment with MDA-MB-231 and in the experiment with NCI-H23 was > 100 µM (inactive) each time.

Turning to `NCCN/C(=N\c1ccccc1)Nc1ccccc1`, the GI50 in the experiment with NCI-H522 was 68.4 µM (inactive); in the experiment with HOP-62, > 100 µM (inactive); in the experiment on SK-MEL-2, > 100 µM (inactive); in the experiment on BT-549 it was > 100 µM (inactive); with EKVX, > 100 µM (inactive); with Malme-3M it was > 100 µM (inactive). The GI50 in the experiment with MDA-N, in the experiment on KM12, in the experiment on NCI/ADR-RES, with Hs-578T, in the experiment on MCF7 and in the experiment with U-251 was > 100 µM (inactive) each time. Also, the GI50 in the experiment on 786-0 was > 100 µM (inactive); with HCT-15, above 100 µM; in the experiment on A549, > 100 µM (inactive); in the experiment with MOLT-4, > 100 µM (inactive); in the experiment with RPMI-8226 it was > 100 µM (inactive); in the experiment with MDA-MB-231, > 100 µM (inactive). The GI50 in the experiment on NCI-H23 was > 100 µM (inactive).

As to `[N-]=[N+]=NC[C@H]1OCO[C@H](CN=[N+]=[N-])[C@H]2OCCOCCOc3ccccc3OCCOCCO[C@@H]21`, the GI50 in the experiment on NCI-H522, in the experiment with HOP-62, with SK-MEL-2, with BT-549, in the experiment on EKVX and in the experiment on Malme-3M was > 100 µM (inactive) each time. Moreover, the GI50 in the experiment on MDA-N, in the experiment with KM12, in the experiment on NCI/ADR-RES, with Hs-578T, with MCF7 and in the experiment on U-251 was > 100 µM (inactive) throughout. The GI50 in the experiment with 786-0 was > 100 µM (inactive); with HCT-15, above 100 µM; in the experiment on A549, > 100 µM (inactive); in the experiment on MOLT-4 it was > 100 µM (inactive); in the experiment with RPMI-8226 it was > 100 µM (inactive); in the experiment on MDA-MB-231 it was > 100 µM (inactive). For the same molecule, the GI50 in the experiment with NCI-H23 was > 100 µM (inactive).
